Reference: patent publication US20220162215A1, “COMPOSITIONS AND METHODS OF USING THE SAME FOR TREATMENT OF NEURODEGENERATIVE AND MITOCHONDRIAL DISEASE” (MITOKININ, INC., priority 2019, published 2022)
Where two headings read alike, the source gives them in different places.

Columns and labels:
[1] = Visual inspection of crystallization; format: physicochemical; set-up: key: 1: yes crystals; 0: no crystals; settings: Tables 5A-5D
Description: (§2) Briefly, the Hela MKYP (Mito-Keima/YFP-Parkin) cells were seeded at 10K cells/well. EP/MTK compounds were added at seeding (cells were still in suspension). The cells were incubated with the EP/MTK compounds for 16 hours, then 1 μM FCCP/oligomycin was added for 6 hours. Prior to harvesting, cells were scored by eye under 20× magnification for the presence or absence of crystalline or aggregated compound, or round cells.

[2] = tested on: HeLa MKYP cells; experiment: Human mitophagy assay (HeLa MKYP, mtKeima FACS, FCCP/oligomycin); format: cell-based; settings: for EC50 / activation at 1.6 µM: Homo sapiens, HeLa; for Potency at 1 μM F/O toxin: Table 1, % activation of mitophagy at 6.3 μM treatment of the compound; for activation at 1.6 µM: 6 h, Table 2, % activation of mitophagy at 1.6 μM treatment of the compound, read-out: Potency at 1 μM F/O toxin*
Description: (§1) Briefly, HeLa MKYP cells were plated at 10,000 cells/well in 96 well plates along with compounds at various concentrations. Following 16 hrs of incubation, cells were treated with 1 uM FCCP/oligomycin for 6 hours, then analyzed via FACS for the presence of mitochondria in lysosomes (as determined by an emissions spectrum shift from the pH-sensitive mtKeima tag). Examples are shown in FIG. 1 through FIG. 13 below.

[3] = tested on: HeLa MKYP cells; experiment: Toxicity / cell death measured by DAPI staining (take-up); format: cell-based; settings: 50 μM; for Toxicity (% positive for DAPI take-up @ 50 μM): Table 1
Description: H2O2 treatment was performed as a control for cell death as measured by DAPI staining.
as §1, with “tag).” for “tag). Examples are shown in FIG. 1 through FIG. 13 below.”

[4] = tested on: Hela MKYP (Mito-Keima/YFP-Parkin) cells; experiment: Inspection of round cells; settings: Tables 6A-6D
Description: as §2

[5] = Table 3, read-out: Potency at 1 μM F/O toxin* (EC50 of mitophagy activation)
[6] = Table 3 Supplement A, as measured in Table 3, read-out: Potency (EC50 Max Mitophagy) (μM)*

Row | Structure (SMILES) | Visual inspection of crystallization ([1]; 1.6 μM) | Visual inspection of crystallization ([1]; 3.1 μM) | Visual inspection of crystallization ([1]; 6.3 μM) | Visual inspection of crystallization ([1]; 12.5 μM) | Visual inspection of crystallization ([1]; 25.0 μM) | Visual inspection of crystallization ([1]; 50.0 μM) | EC50 [2, 5] [µM] | EC50 [2, 6] [µM] | Inspection of round cells ([4]; 1.6 μM) | Inspection of round cells ([4]; 3.1 μM) | Inspection of round cells ([4]; 6.3 μM) | Inspection of round cells ([4]; 12.5 μM) | Inspection of round cells ([4]; 25.0 μM) | Inspection of round cells ([4]; 50.0 μM) | Toxicity (% positive for DAPI takeup @ 50 μM) ([3]; Table 3) [%] | Toxicity (% positive for DAPI take-up at 50 μM)* ([3]; Table 3 Supplement A) [%] | other results
1 | C[C@@H](Nc1ncnc2[nH]c(C(F)(F)F)cc12)c1cncnc1 [Compound 70] | 0 | 0 | 0 | 0 | 0 | 0 | 21.6 | 21.6 | 0 | 0 | 0 | 0 | 0 | 0 | – | – | Toxicity (% positive for DAPI take-up at 50 μM)* ([3]; human): 22.95%; Toxicity (% positive for DAPI takeup @ 50 μM) ([3]; human): 22.9%
2 | c1ncc(CNc2ncnc3[nH]cnc23)cn1 [Compound 67] | 0 | 0 | 0 | 0 | 0 | 0 | 4.4 | 4.42 | 0 | 0 | 0 | 0 | 0 | 0 | – | – | Toxicity (% positive for DAPI take-up at 50 μM)* ([3]; human): 5.33%; Toxicity (% positive for DAPI takeup @ 50 μM) ([3]; human): 5.3%
3 | CC(Nc1ncnc2[nH]cnc12)c1ccccc1 (centres unmarked) [Compound 71] | 0 | 0 | 0 | 0 | 0 | 0 | 3.5 | 2.69 | 0 | 0 | 0 | 0 | 0 | 0 | 18.2 | 22.24 | –
4 | COc1ncc(CNc2ncnc3[nH]c(C(F)(F)F)cc23)cn1 [Compound 66] | 0 | 0 | 0 | 0 | 1 | 1 | 10.6 | 10.6 | 0 | 0 | 0 | 0 | 1 | 1 | 5.8 | 5.76 | –
5 | CCCCNc1ncnc2c1cc(C(F)(F)F)n2C(C)=O [Compound 69] | 0 | 0 | 0 | 0 | 0 | 0 | > 50 | – | 0 | 0 | 0 | 0 | 0 | 0 | 36.6 | – | –
6 | CC(Nc1ncnc2[nH]c(C3CC3)nc12)c1ccccc1 (centres unmarked) [Compound 28] | 0 | 0 | 0 | 0 | 0 | 0 | 6.3 | 6.32 | 0 | 0 | 0 | 0 | 0 | 0 | 18.3 | 18.26 | –
7 | CCCCNc1ncnc2[nH]c(C(OCC)C(F)(F)F)cc12 (centres unmarked) [Compound 5] | – | – | – | – | – | – | – | – | – | – | – | – | – | – | – | – | Potency at 1 μM F/O toxin [2]: 17.9%; Toxicity (% positive for DAPI take-up @ 50 μM) [3]: 47.4%
8 | CCCCNc1ncnc2[nH]c(-c3ccccc3)cc12 [Compound 6] | – | – | – | – | – | – | – | – | – | – | – | – | – | – | – | – | Potency at 1 μM F/O toxin [2]: 52.0%; Toxicity (% positive for DAPI take-up @ 50 μM) [3]: 90.0%
9 | FC(F)(F)c1cc2c(NCc3cncnc3)ncnc2[nH]1 [Compound 49] | – | – | – | – | – | – | 11.7 | – | – | – | – | – | – | – | – | – | Toxicity (% positive for DAPI takeup @ 50 μM) ([3]; human): 23.0%
10 | FC(F)(F)c1cc2c(NCc3ccccc3)ncnc2[nH]1 [Compound 9] | – | – | – | – | – | – | – | – | – | – | – | – | – | – | – | – | activation at 1.6 µM [2]: 35.1%; Toxicity (% positive for DAPI takeup @ 50 μM) ([3]; Table 2): 50.4%
11 | CCCCNc1ncnc2[nH]c(CC)cc12 [Compound 7] | – | – | – | – | – | – | – | – | – | – | – | – | – | – | – | – | Potency at 1 μM F/O toxin [2]: 14.0%; Toxicity (% positive for DAPI take-up @ 50 μM) [3]: 93.4%
12 | CCCCNc1ncnc2[nH]c(C3CCC3)nc12 [Compound 31] | – | – | – | – | – | – | > 50 | – | – | – | – | – | – | – | 6.1 | – | –
13 | C[C@@H](Nc1ncnc2[nH]c(C3CC3)nc12)c1ccccc1 [Compound 47] | – | – | – | – | – | – | > 50 | > 25 | – | – | – | – | – | – | 12.3 | 12.33 | –
14 | OC[C@H](Nc1ncnc2[nH]cnc12)c1ccccc1 [Compound 75] | – | – | – | – | – | – | 3.5 | 3.48 | – | – | – | – | – | – | 14.5 | 14.49 | –
15 | FC(F)(F)c1cc2c(NC3(c4ccccc4)CC3)ncnc2[nH]1 [Compound 11] | – | – | – | – | – | – | – | – | – | – | – | – | – | – | – | – | activation at 1.6 µM [2]: 20.8%; Toxicity (% positive for DAPI takeup @ 50 μM) ([3]; Table 2): 80.5%
